Test results as given in patent US20110027348A1, “COMPOSITION AND METHOD INHIBITING INFLAMMATION” (priority 2007, published 2011).

Tests used:
[1] = tested on: TNF-alpha; test: LPS-evoked immunogenic inflammation, TNF-alpha levels in monocyte/macrophage culture (Example I/1); assay type: cell-based; details: RAW 264,7 culture, control 0%
Protocol: The purpose of this experimental model was to measure inhibitory influence of omega 3 fatty acids, vitamin E and CoQ10 separately and in combination, using methods disclosed in literature (J. Surg Res. 2002 September; 107(1):135-139). For evoking inflammation bacterial endotoxin (LPS) was used and changes in levels of a proinflammatory cytokin, TNF-alpha were measured in a monocyte/macrophage (RAW 264,7) culture. It is clear that both combinations show inhibition of inflammation, the 3 member combination a considerably higher one.

[2] = tested on: retinal pigment epithelial (RPE) cells; test: Retinal cell culture, growth and differentiation of RPE cells (Example I/6); assay type: cell-based, Wistar rats; details: 7 day stage, morphometric analysis, control 0%
Protocol: The aim of this study was to reveal the influence of omega 3 fatty acids, Vitamin E, CoQ10 and LB separately or in combination on the development and differentiation of retinal cells in culture (in vitro). Retinas of newborn (1-2 days) Wistar rats were isolated. and cultured as described in our previous paper (Int. J. Dev. Neurosc. 1998 August; 16(5):423-32). In six different combinations, the culture medium contained 10 g omega 3 fatty acids, 100 mg vitamin E, 100 mg CoQ10 and 0.05 microgram LB per 100 ml. At the 7 day stage size and differentiation of retinal pigment epithelial (RPE) cells were determined by morphometric analysis, as described in the cited work.

[3] = tested on: neurogenic inflammation evoked by capsaicin; test: Capsaicin-evoked neurogenic inflammation in newborn rats (Example I/2); assay type: in vivo, Sprague Dawley rats
Protocol: Neurogenic inflammation was evoked in newborn ([…]) Sprague Dawley rats by intraperitoneal administration of capsaicin (50 mg/kg of body mass) as described in the literature (Acta Physiol. Hung. 1987; 69(3-4):323-32). Twenty-four hours before capsaicin injection 10 ml intravenous infusions each of CoQ10, or omega 3+vitamin E, or omega 3+vitamin E+CoQ10 were applied. Each of these combinations contained 1.0 g omega 3, 10 mg vitamin E and 10 mg CoQ10. […] Hypotensive shock and subsequent death were prevented by pre-treatment with omega 3+vitamin E in 26% and in the omega 3+vitamin E+CoQ10 in 64%, while in the control group only 22% survived. […] Six weeks after the capsaicin injection, corneal transparency and sensitivity returned to normal in the pre-treated groups, while in the control group reduced transparency and sensitivity were observed.

Row | SMILES | Decrease in proinflammatory cytokine levels in immunogenic inflammation: TNF-alpha [1] [%] | RPE differentiation [2] [%] | RPE growth [2] [%] | Neurogenic inflammation, acute features (survival; hypotensive shock and subsequent death prevented) ([3]; 10 ml i.v. infusion 24 hours before capsaicin 50 mg/kg i.p., control 22%) [%] | Neurogenic inflammation, chronic features ([3]; 10 ml i.v. infusion 24 hours before capsaicin, six weeks after capsaicin, control 20%) [%]
1 | COC1=C(OC)C(=O)C(C/C=C(\C)CC/C=C(\C)CC/C=C(\C)CC/C=C(\C)CC/C=C(\C)CC/C=C(\C)CC/C=C(\C)CC/C=C(\C)CC/C=C(\C)CCC=C(C)C)=C(C)C1=O [CoQ10, ubiquinone 10] | −3 | 3 | 1 | 22 | 25
2 | CC(=O)Oc1ccccc1C(=O)O [aspirin] | −21 | – | – | – | –
